Measurements reported in patent US20260285888A1, “HETEROCYCLIC COMPOUND AND USE THEREOF” (OTSUKA PHARMACEUTICAL CO., LTD., priority 2023, published 2026).

What was measured:
in vitro = assay type: cell-based, human; settings: human, differentiated hl-60 cells, 300 μmol/L, about 24 hours, PMA-differentiated HL-60 cells, LDH; no-treatment 0%, cell lysis buffer 100%; read-out: cytotoxicity (%) Evaluation compound results
Summary of the method: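 Cytotoxicity (%) from supernatant LDH activity after ~24 h treatment at 300 μmol/L final, normalised to no-treatment (0%) and lysis buffer (100%). Cells were PMA-differentiated (10 nM, ~72 h) HL-60 in 2% FBS medium; triplicate means.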

[1] = Study for confirmation of conversion to brexpiprazole in a buffer (stability of the evaluation compounds); assay type: physicochemical; settings: in buffer, average of duplicate; for Concentration of brexpiprazole formed: 60-minute reaction sample; for Concentration of evaluation compound decreased: decrease in 60-minute vs 0-minute reaction sample
Summary of the method: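 Compounds (final 1 μmol/L, from 100 μmol/L working solutions) incubated in buffer at 37° C. for 0 or 60 min, in duplicate, after 3 min pre-incubation of the reaction solution. Reactions stopped with acetonitrile/isopropanol (4:1) containing internal standards; compound and formed brexpiprazole quantified against 0.01–1 μmol/L calibration samples.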

Concentration of brexpiprazole formed [1]	Concentration of evaluation compound decreased [1]	SMILES	cytotoxicity at 24 h, 300 µM (in vitro)
0 nM	90 nM	CC1(C)OCC(C(=O)OCOP(=O)([O-])OC[N+]2(CCCCOc3ccc4ccc(=O)[nH]c4c3)CCN(c3cccc4sccc34)CC2)CO1 [EX 67, (4-(benzo[b]thiophen-4-yl)-1-(4-((2-oxo-1,2-dihydroquinolin-7-yl)oxy)butyl)piperazin-1-ium-1-yl)methyl (((2,2-dimethyl-1,3-dioxane-5-carbonyl)oxy)methyl) phosphate]	1%
0 nM	120 nM	O=c1ccc2ccc(OCCCC[N+]3(COP(=O)([O-])OC/C=C\CO)CCN(c4cccc5sccc45)CC3)cc2[nH]1 [EX 43, (Z)-(4-(benzo[b]thiophen-4-yl)-1-(4-((2-oxo-1,2-dihydroquinolin-7-yl)oxy)butyl)piperazin-1-ium-1-yl)methyl (4-hydroxybut-2-en-1-yl) phosphate]	-6%
0 nM	110 nM	O=c1ccc2ccc(OCCCC[N+]3(COP(=O)([O-])OCCCCCO)CCN(c4cccc5sccc45)CC3)cc2[nH]1 [EX 92]	-7%
0 nM	130 nM	O=C(CCO)OCOP(=O)([O-])OC[N+]1(CCCCOc2ccc3ccc(=O)[nH]c3c2)CCN(c2cccc3sccc23)CC1 [EX 125, (4-(benzo[b]thiophen-4-yl)-1-(4-((2-oxo-1,2-dihydroquinolin-7-yl)oxy)butyl)piperazin-1-ium-1-yl)methyl (((3-hydroxypropanoyl)oxy)methyl) phosphate]	-7%
0 nM	10 nM	COCCNP(=O)([O-])OC[N+]1(CCCCOc2ccc3ccc(=O)[nH]c3c2)CCN(c2cccc3sccc23)CC1 [EX 152, (4-(benzo[b]thiophen-4-yl)-1-(4-((2-oxo-1,2-dihydroquinolin-7-yl)oxy)butyl)piperazin-1-ium-1-yl)methyl (2-methoxyethyl)phosphoramidate]	-10%
0 nM	160 nM	O=C(CCCCCO)OCOP(=O)([O-])OC[N+]1(CCCCOc2ccc3ccc(=O)[nH]c3c2)CCN(c2cccc3sccc23)CC1 [EX 126, (4-(benzo[b]thiophen-4-yl)-1-(4-((2-oxo-1,2-dihydroquinolin-7-yl)oxy)butyl)piperazin-1-ium-1-yl)methyl (6-hydroxyhexanoyl)oxy)methyl) phosphate]	-7%
0 nM	60 nM	CC(C)OC(=O)[C@H](C)NP(=O)([O-])OC[N+]1(CCCCOc2ccc3ccc(=O)[nH]c3c2)CCN(c2cccc3sccc23)CC1 [EX 159, (4-(benzo[b]thiophen-4-yl)-1-(4-((2-oxo-1,2-dihydroquinolin-7-yl)oxy)butyl)piperazin-1-ium-1-yl)methyl (S)-(1-isopropoxy-1-oxopropan-2-yl)phosphoramidate]	-1%
0 nM	0 nM	COCCOC(=O)OCOP(=O)([O-])OC[N+]1(CCCCOc2ccc3ccc(=O)[nH]c3c2)CCN(c2cccc3sccc23)CC1 [EX 33, (4-(benzo[b]thiophen-4-yl)-1-(4-((2-oxo-1,2-dihydroquinolin-7-yl)oxy)butyl)piperazin-1-ium-1-yl)methyl ((((2-methoxyethoxy)carbonyl)oxy)methyl) phosphate]	-7%
0 nM	20 nM	CCOC(=O)CNP(=O)([O-])OC[N+]1(CCCCOc2ccc3ccc(=O)[nH]c3c2)CCN(c2cccc3sccc23)CC1 [EX 154, (4-(benzo[b]thiophen-4-yl)-1-(4-((2-oxo-1,2-dihydroquinolin-7-yl)oxy)butyl)piperazin-1-ium-1-yl)methyl (2-ethoxy-2-oxoethyl)phosphoramidate]	4%
0 nM	10 nM	O=c1ccc2ccc(OCCCC[N+]3(COP(=O)([O-])OCCCOc4ccccc4)CCN(c4cccc5sccc45)CC3)cc2[nH]1 [EX 84, 4-(benzo[b]thiophen-4-yl)-1-(4-((2-oxo-1,2-dihydroquinolin-7-yl)oxy)butyl)piperazin-1-ium-1-yl)methyl (3-phenoxypropyl) phosphate]	1%
0 nM	-10 nM	CCOC(=O)[C@@H](C)OP(=O)([O-])OC[N+]1(CCCCOc2ccc3ccc(=O)[nH]c3c2)CCN(c2cccc3sccc23)CC1 [EX 103, (R)-(4-(benzo[b]thiophen-4-yl)-1-(4-((2-oxo-1,2-dihydroquinolin-7-yl)oxy)butyl)piperazin-1-ium-1-yl)methyl(1-ethoxy-1-oxopropan-2-yl) phosphate]	3%
0 nM	50 nM	CCC(=O)OCOP(=O)([O-])OC[N+]1(CCCCOc2ccc3ccc(=O)[nH]c3c2)CCN(c2cccc3sccc23)CC1 [EX 120, (4-(benzo[b]thiophen-4-yl)-1-(4-((2-oxo-1,2-dihydroquinolin-7-yl)oxy)butyl)piperazin-1-ium-1-yl)methyl ((propionyloxy)methyl) phosphate]	13%
0 nM	50 nM	COCCCOP(=O)([O-])OC[N+]1(CCCCOc2ccc3ccc(=O)[nH]c3c2)CCN(c2cccc3sccc23)CC1 [EX 49, (4-(benzo[b]thiophen-4-yl)-1-(4-((2-oxo-1,2-dihydroquinolin-7-yl)oxy)butyl)piperazin-1-ium-1-yl)methyl (3-methoxypropyl) phosphate]	-7%
0 nM	30 nM	O=c1ccc2ccc(OCCCC[N+]3(COP(=O)([O-])OC/C=C/CO)CCN(c4cccc5sccc45)CC3)cc2[nH]1 [EX 42, (E)-(4-(benzo[b]thiophen-4-yl)-1-(4-((2-oxo-1,2-dihydroquinolin-7-yl)oxy)butyl)piperazin-1-ium-1-yl)methyl (4-hydroxybut-2-en-1-yl) phosphate]	8%
-10 nM	-70 nM	COCCC(=O)OCOP(=O)([O-])OC[N+]1(CCCCOc2ccc3ccc(=O)[nH]c3c2)CCN(c2cccc3sccc23)CC1 [EX 28, (4-(benzo[b]thiophen-4-yl)-1-(4-((2-oxo-1,2-dihydroquinolin-7-yl)oxy)butyl)piperazin-1-ium-1-yl)methyl (((3-methoxypropanoyl)oxy)methyl) phosphate]	-8%
0 nM	10 nM	COCCOCCOC(=O)OCOP(=O)([O-])OC[N+]1(CCCCOc2ccc3ccc(=O)[nH]c3c2)CCN(c2cccc3sccc23)CC1 [EX 34, (4-(benzo[b]thiophen-4-yl)-1-(4-((2-oxo-1,2-dihydroquinolin-7-yl)oxy)butyl)piperazin-1-ium-1-yl)methyl (3-oxo-2,4,7,10-tetraoxaundecyl) phosphate]	-10%
0 nM	-10 nM	CCCOCCOP(=O)([O-])OC[N+]1(CCCCOc2ccc3ccc(=O)[nH]c3c2)CCN(c2cccc3sccc23)CC1 [EX 95, (4-(benzo[b]thiophen-4-yl)-1-(4-((2-oxo-1.2-dihydroquinolin-7-yl)oxy)butyl)piperazin-1-ium-1-yl)methyl (2-propoxyethyl) phosphate]	-4%

SMILES	Concentration of brexpiprazole formed [1]	Concentration of evaluation compound decreased [1]	cytotoxicity at 24 h, 300 µM (in vitro)
CC(=O)OCCCCCCOP(=O)([O-])OC[N+]1(CCCCOc2ccc3ccc(=O)[nH]c3c2)CCN(c2cccc3sccc23)CC1 [EX 101, 6-acetoxyhexyl ((4-(benzo[b]thiophen-4-yl)-1-(4-((2-oxo-1,2-dihydroquinolin-7-yl)oxy)butyl)piperazin-1-ium-1-yl)methyl) phosphate]	0 nM	80 nM	16%
COCCCCOC(=O)OCOP(=O)([O-])OC[N+]1(CCCCOc2ccc3ccc(=O)[nH]c3c2)CCN(c2cccc3sccc23)CC1 [EX 36, (4-(benzo[b]thiophen-4-yl)-1-(4-((2-oxo-1,2-dihydroquinolin-7-yl)oxy)butyl)piperazin-1-ium-1-yl)methyl ((((4-methoxybutoxy)carbonyl)oxy)methyl) phosphate]	0 nM	-40 nM	-10%
COC(=O)[C@H](COP(=O)([O-])OC[N+]1(CCCCOc2ccc3ccc(=O)[nH]c3c2)CCN(c2cccc3sccc23)CC1)NC(=O)OC(C)(C)C [EX 83, (S)-(4-(benzo[b]thiophen-4-yl)-1-(4-((2-oxo-1,2-dihydroquinolin-7-yl)oxy)butyl)piperazin-1-ium-1-yl)methyl (2-(tert-butoxycarbonyl)amino)-3-methoxy-3-oxopropyl) phosphate]	0 nM	70 nM	-5%
